Target: Pim-1 (Homo sapiens (Human), UniProt P11309)
Test: Pim kinase binding activity assay (Example 901), PIM-1 enzyme, Caliper microfluidic peptide phosphorylation
Format: biochemical
Details: 20 pM PIM-1, 10 μM ATP, 1 μM FAM-peptide, 90 minutes at room temperature
Procedure, shortened: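 PIM-1 at 20 pM phosphorylated 1 μM FAM-labelled Pim peptide with 10 μM ATP in HEPES pH 7.2, MgCl2, Tween 20 and DTT for 90 min at room temperature. EDTA stopped the reaction, and product and substrate were resolved by microfluidic electrophoresis (ex 488/em 530 nm). Ki was derived from substrate conversion.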

Pim-1, sequence (P11309 whole entry): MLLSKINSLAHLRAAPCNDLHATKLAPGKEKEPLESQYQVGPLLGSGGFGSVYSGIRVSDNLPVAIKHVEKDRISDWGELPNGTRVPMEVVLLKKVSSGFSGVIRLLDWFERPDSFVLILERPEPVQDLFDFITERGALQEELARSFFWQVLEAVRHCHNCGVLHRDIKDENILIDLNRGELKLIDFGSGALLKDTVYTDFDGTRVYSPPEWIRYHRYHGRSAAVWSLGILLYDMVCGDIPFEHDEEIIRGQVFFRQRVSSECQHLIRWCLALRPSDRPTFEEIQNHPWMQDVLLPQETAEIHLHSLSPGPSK

| Compound | Ki |
| --- | --- |
| N[C@H]1CCC[C@@H](Oc2cccc(-c3n[nH]c4cnc(-c5cccnc5)cc34)n2)C1 [Example 299, (1S,3R)-3-(6-(5-(pyridin-3-yl)-1H-pyrazolo[3,4-c]pyridin-3-yl)pyridin-2-yloxy)cyclohexanamine] | 0.664 nM |
| NC1CCN(c2ccncc2-c2cc3c(-c4ccccc4F)n[nH]c3cn2)CC1 [Example 128, 1-(3-(3-(2-fluorophenyl)-1H-pyrazolo[3,4-c]pyridin-5-yl)pyridin-4-yl)piperidin-4-amine] | 1500 nM |
| Cn1cc(-c2cc3c(-c4ccnc(N5CCC[C@@H](N)C5)n4)n[nH]c3cn2)cn1 [Example 364, (R)-1-(4-(5-(1-methyl-1H-pyrazol-4-yl)-1H-pyrazolo[3,4-c]pyridin-3-yl)pyrimidin-2-yl)piperidin-3-amine] | 0.052 nM |
| NC1CCCN(c2cncc(-c3n[nH]c4cnc(-c5cccnc5)cc34)c2)CC1 (stereo not drawn) [Example 169, 1-(5-(5-(pyridin-3-yl)-1H-pyrazolo[3,4-c]pyridin-3-yl)pyridin-3-yl)azepan-4-amine] | 1.35 nM |
| Cn1ccc(-c2n[nH]c3cnc(-c4cccnc4)cc23)n1 [Example 232, 3-(1-methyl-1H-pyrazol-3-yl)-5-(pyridin-3-yl)-1H-pyrazolo[3,4-c]pyridine] | 7.16 nM |
| N[C@@H]1CCC[C@@H](Nc2cccc(-c3n[nH]c4cnc(-c5cccnc5)cc34)n2)C1 [Example 352, (1R,3R)-N1-(6-(5-(pyridin-3-yl)-1H-pyrazolo[3,4-c]pyridin-3-yl)pyridin-2-yl)cyclohexane-1,3-diamine] | 0.025 nM |
| CCn1cc(-c2cc3c(-c4cccc(N5C[C@@H](N)C[C@@H](F)C5)n4)n[nH]c3cn2)cn1 [Example 385, (3S,5R)-1-(6-(5-(1-ethyl-1H-pyrazol-4-yl)-1H-pyrazolo[3,4-c]pyridin-3-yl)pyridin-2-yl)-5-fluoropiperidin-3-amine] | 0.131 nM |

Continued by falling Ki, values first:

| Ki | Compound |
| --- | --- |
| 3800 nM | c1cncc(-c2cc3c(CNC4CCNCC4)n[nH]c3cn2)c1 [Example 109, N-((5-(pyridin-3-yl)-1H-pyrazolo[3,4-c]pyridin-3-yl)methyl)piperidin-4-amine] |
| 106 nM | NC1CCN(C(=O)C2CCN(c3n[nH]c4cnc(-c5cccnc5)cc34)C2=O)CC1 (stereo not drawn) [Example 325, 3-(4-aminopiperidine-1-carbonyl)-1-(5-(pyridin-3-yl)-1H-pyrazolo[3,4-c]pyridin-3-yl)pyrrolidin-2-one] |
| 3.29 nM | c1cc(-c2n[nH]c3cnc(N4CCOCC4)cc23)nc(N2CCNCC2)c1 [Example 401, 4-(3-(6-(piperazin-1-yl)pyridin-2-yl)-1H-pyrazolo[3,4-c]pyridin-5-yl)morpholine] |
| 1.02 nM | Cc1ccc(-c2n[nH]c3cnc(-c4cnn(C)c4)cc23)nc1N1CC(N2CCS(=O)(=O)CC2)C1 [Example 413, 4-(1-(3-methyl-6-(5-(1-methyl-1H-pyrazol-4-yl)-1H-pyrazolo[3,4-c]pyridin-3-yl)pyridin-2-yl)azetidin-3-yl)-1,1-dioxo thiomorpholine] |
| 0.322 nM | O=C1CN(c2cccc(-c3n[nH]c4cnc(-c5cccnc5)cc34)n2)CCCN1 [Example 322, 4-(6-(5-(pyridin-3-yl)-1H-pyrazolo[3,4-c]pyridin-3-yl)pyridin-2-yl)-1,4-diazepan-2-one] |
| 0.188 nM | N[C@@H]1CCN(c2cccc(-c3n[nH]c4cnc(-c5cccnc5)cc34)n2)C1 [Example 276, (R)-1-(6-(5-(pyridin-3-yl)-1H-pyrazolo[3,4-c]pyridin-3-yl)pyridin-2-yl)pyrrolidin-3-amine] |
| 0.029 nM | Cc1ccc(-c2n[nH]c3cnc(-c4cnn(C)c4)cc23)nc1N1CCN(C)CC1 [Example 440, 5-(1-methyl-1H-pyrazol-4-yl)-3-(5-methyl-6-(4-methylpiperazin-1-yl)pyridin-2-yl)-1H-pyrazolo[3,4-c]pyridine] |
| 0.027 nM | CC(O)c1cncc(-c2cc3c(-c4cccc(N5CCNCC5)n4)n[nH]c3cn2)c1 (stereo not drawn) [Example 483, 1-(5-(3-(6-(piperazin-1-yl)pyridin-2-yl)-1H-pyrazolo[3,4-c]pyridin-5-yl)pyridin-3-yl)ethanol] |

From US9260425B2 (Genetech, Inc., priority 2011, dated 2016)
